Data published in patent US20120114576A1, “Method for preventing or treating yellowish discoloration of skin” (Shiseido Company, Ltd., priority 2010, published 2012).

Biological target: T1, acellular dermis model (contracted collagen gel) (Bos taurus, UniProt P02453+P02465)
T1 construct: purchased Koken, Tokyo, Japan; host or cells: The gel was contracted by dermal fibroblasts, which were then destroyed by washing with de-ionized water
Assay: Experimental induction of yellowish change in acellular dermis model by carbonyl modification or glycation (colorimetry b*)
Set-up: species or system bovine
Settings: 37° C.; for yellowish change of the dermal model (b*), long term treatment: 50 μM, 50 days, FIGS. 6 C and D; for yellowish change of the gel (b*): 9 days, FIGS. 6 A and B
Experimental: Skin color was measured by using a chromameter Konica-Minolta CM 2600d. The measurement of excised skin samples was performed by placing the skin samples on a white board. Data were expressed in the CIE L*a*b* color space, and the parameter b* was employed as a value for yellowish color.
A dermal equivalent model consisted of contracted collagen gel containing a trace amount of other extracellular matrix was prepared according to the method described by Tsunenaga et al. with a slight modification. Briefly, dermal fibroblasts (1×10^6 cells) were cultivated in 10 ml of Dulbecco's modified Eagle's medium supplemented with 10% fetal bovine serum and 0.3% acid-solubilized bovine type I collagen (Koken, Tokyo, Japan) in a petri dish of 60 mm diameter at 37° C. and 5% CO2. After 7 days of culture, a contracted collagen gel approximately 15 mm diameter was produced. Thereafter, this dermal equivalent model was extensively washed with serial changes of an excess amount of de-ionized water to destroy fibroblasts and to remove soluble materials.
The prepared acellular dermis model was incubated in 2.5 ml of an aqueous solution of chemical reagents, containing acrolein (50 μM to 10 mM) and 4-hydroxynonenal (4-HNE, 50 μM to 10 mM) for the carbonyl modification, and ribose (200 mM) and glyoxal (10 mM) for glycation. They were INCUBATED at 37° C. and the solutions were changed twice a week. Changes taking place in their color were monitored by colorimetry.
To confirm a link suspected between the carbonyl modification and the yellowish change of the dermis, the inventors examined the effect of experimentally produced carbonyl modification on the color of an acellular dermis model, and selected a contracted collagen gel as a dermis model, and treated it with acrolein or 4-HNE to induce carbonyl modification, or with d-ribose or glyoxal to induce glycation as a reference. […] Furthermore, a long term treatment of the dermis model with 50 μM acrolein or 50 μM 4-HNE, which were almost equivalent to those of the physiological concentrations in human tissue, also led to the yellowish colorization (FIGS. 6 C and D).

T1 sequence (P02453 162-1217 limits assumed): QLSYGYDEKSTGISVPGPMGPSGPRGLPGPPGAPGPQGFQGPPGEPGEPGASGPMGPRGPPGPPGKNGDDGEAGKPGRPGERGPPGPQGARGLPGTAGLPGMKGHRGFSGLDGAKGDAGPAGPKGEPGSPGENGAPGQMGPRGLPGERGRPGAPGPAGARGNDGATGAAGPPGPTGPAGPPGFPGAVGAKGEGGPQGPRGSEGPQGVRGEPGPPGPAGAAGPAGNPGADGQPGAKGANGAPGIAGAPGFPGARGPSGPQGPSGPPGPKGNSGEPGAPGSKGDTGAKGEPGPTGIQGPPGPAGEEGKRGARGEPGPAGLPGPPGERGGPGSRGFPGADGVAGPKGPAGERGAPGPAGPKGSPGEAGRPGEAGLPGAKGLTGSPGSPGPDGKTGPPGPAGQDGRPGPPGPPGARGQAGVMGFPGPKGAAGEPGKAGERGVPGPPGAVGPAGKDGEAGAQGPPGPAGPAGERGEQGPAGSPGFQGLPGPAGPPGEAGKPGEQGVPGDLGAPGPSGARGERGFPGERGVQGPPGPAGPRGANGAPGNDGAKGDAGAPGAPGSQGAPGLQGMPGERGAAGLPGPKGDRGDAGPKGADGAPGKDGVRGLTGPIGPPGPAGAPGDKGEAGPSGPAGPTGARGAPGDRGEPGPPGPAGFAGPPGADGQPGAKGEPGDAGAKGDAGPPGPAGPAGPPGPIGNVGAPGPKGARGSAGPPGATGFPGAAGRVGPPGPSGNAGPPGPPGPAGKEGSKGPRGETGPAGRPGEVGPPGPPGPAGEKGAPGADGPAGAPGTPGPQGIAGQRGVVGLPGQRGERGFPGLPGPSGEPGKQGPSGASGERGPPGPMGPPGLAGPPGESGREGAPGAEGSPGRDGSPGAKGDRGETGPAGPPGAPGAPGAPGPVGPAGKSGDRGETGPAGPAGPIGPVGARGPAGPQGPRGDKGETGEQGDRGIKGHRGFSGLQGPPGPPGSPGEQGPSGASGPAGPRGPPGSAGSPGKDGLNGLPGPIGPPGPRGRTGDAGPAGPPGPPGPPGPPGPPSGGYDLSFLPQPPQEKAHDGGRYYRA
T1 sequence (P02465 80-1117 limits assumed): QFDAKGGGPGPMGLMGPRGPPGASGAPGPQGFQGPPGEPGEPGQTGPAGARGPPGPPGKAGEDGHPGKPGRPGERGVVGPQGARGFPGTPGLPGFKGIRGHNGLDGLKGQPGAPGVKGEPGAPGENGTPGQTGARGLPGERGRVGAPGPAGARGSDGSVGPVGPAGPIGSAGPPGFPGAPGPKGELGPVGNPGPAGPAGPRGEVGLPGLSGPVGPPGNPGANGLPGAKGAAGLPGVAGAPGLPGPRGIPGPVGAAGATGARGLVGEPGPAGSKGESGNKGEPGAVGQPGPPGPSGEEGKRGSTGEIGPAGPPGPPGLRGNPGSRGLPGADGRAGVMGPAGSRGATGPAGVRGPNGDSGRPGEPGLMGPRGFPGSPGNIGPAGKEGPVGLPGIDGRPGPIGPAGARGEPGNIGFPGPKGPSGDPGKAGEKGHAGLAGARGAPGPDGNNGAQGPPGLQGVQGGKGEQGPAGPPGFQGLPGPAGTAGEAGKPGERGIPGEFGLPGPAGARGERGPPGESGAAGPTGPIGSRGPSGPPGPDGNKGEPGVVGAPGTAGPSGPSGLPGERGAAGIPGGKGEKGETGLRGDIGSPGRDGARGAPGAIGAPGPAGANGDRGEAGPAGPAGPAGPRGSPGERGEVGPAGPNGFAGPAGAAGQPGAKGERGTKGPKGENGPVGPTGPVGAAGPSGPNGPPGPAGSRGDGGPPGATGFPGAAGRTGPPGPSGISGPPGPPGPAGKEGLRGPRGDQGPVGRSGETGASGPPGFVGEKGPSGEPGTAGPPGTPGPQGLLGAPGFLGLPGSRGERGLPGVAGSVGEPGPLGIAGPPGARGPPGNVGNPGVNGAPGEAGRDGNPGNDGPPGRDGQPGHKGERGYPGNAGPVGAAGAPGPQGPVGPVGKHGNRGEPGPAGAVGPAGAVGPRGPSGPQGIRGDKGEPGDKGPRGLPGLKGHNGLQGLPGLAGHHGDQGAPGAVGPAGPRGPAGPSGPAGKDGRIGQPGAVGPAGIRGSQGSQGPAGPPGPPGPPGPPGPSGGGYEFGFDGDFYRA

| yellowish change of the gel (b*) (200 mM) | Compound | yellowish change of the dermal model (b*), long term treatment | yellowish change of the gel (b*) (10 mM) |
| --- | --- | --- | --- |
| – | CCCCCC(O)/C=C/C=O (stereo not drawn) [4-HNE, 4-hydroxynonenal] | reached the maximum in the first 10 days | significant yellowish change |
| – | C=CC=O [acrolein] | almost linear increase depending on the treatment period | significant yellowish change |
| only a slight yellowish change | O=C[C@H](O)[C@H](O)[C@H](O)CO [d-ribose] | – | – |
| – | O=CC=O [glyoxal] | – | only a slight yellowish change |
